Assay results: PMC9928118, “Funneling modulatory peptide design with generative models: Discovery and characterization of disruptors of calcineurin protein-protein interactions” (PLOS Computational Biology, 2023)
One block for each sequence: values may come before it.

Test system: GST-tagged Cn
Experiment: PEPperPRINT peptide microarray binding assay with GST-tagged Cn
Source text: We then estimated in-silico the binding strength of the various peptides to Cn by template-based docking followed by flexible backbone refinement using Modeller and PepCrawler (Figs 4 and S4). In parallel, we performed a medium-throughput qualitative binding assay using a PEPperPRINT peptide microarray to evaluate the direct binding of Cn to selected peptides (Figs 4 and S5, S3 Data).
Fig 4 Medium-throughput filtering by structural modeling and microarray screening. (a) Depiction of the structural modeling protocol: after alignment to the known PxIxIT binding site, an efficient flexible backbone structure refinement algorithm is applied to estimate the docking energy. […] (c) Coefficients of the equivalent single-site model fitted by sparse linear regression, shown in weight logo representation. […] Colors indicate physical property (black = hydrophobic, red = negatively charged, etc.). (d) Per-gene distribution of docking scores across natural fragments (lower is better). […] (e) Overview of the microarray screening. Peptides are printed on the chip (two circles per peptide). After pouring of Cn and subsequent washing, fluorescent-tagged, a Cn-targeting antibody is overlaid and an image is taken. Fluorescent spots indicate strong Cn binders. (f) Scatter plot of the sequence likelihood (normalized by length, higher is better) against fluorescence level (higher is better, see Methods for details of the data analysis).
In parallel, selected peptides were tested for Cn binding on a chip microarray (PEPperPRINT). 786 peptides were printed on the chip and were incubated with GST-tagged Cn overnight at 4°C. Following extensive washing, binding was detected by applying a fluorescently labeled (Alexa-Fluor 647) GST antibody. […] The experiment was repeated five times, and Z-normalized fluorescence levels were determined following post-processing of the raw data (Methods, S5A, S5B and S5C Fig).
The peptide array was prepared as a custom array pepper chip (PEPperPRINT). For binding detection, 1mg/ml GST-tagged Cn was incubated overnight on the microarray at 4°C. Following extensive washing, fluorescently labeled (Alexa-Fluor 647) GST-antibody. […] The experiment was repeated five times. Each scan was analyzed as follows: a grid was overlaid using the border HA markers to determine regions of interest (ROI) for each peptide (two ROIs per peptide) and the logarithm of the average fluorescence intensity was computed for each ROI. […] To remove spatial artifacts, a position-dependent baseline fluorescence was fitted using a second-order polynomial, and subtracted to the fluorescence. Fluorescence levels were next averaged over the two ROI for each peptide and Z-normalized. […] The Z-scores were averaged over the five repetitions to yield one fluorescence score per peptide.

[1] = GST-tagged Cn, max over the chip locations
[2] = GST-tagged Cn, mean over the chip locations
[3] = GST-tagged Cn, max over the spots named in Location on chip
[4] = GST-tagged Cn, mean over the spots named in Location on chip
[5] = max over the chip locations listed for the peptide (two spots)
[6] = mean over the chip locations listed for the peptide (two spots)
[7] = max over the spots listed under Location on chip
[8] = mean over the spots listed under Location on chip
[9] = GST-tagged Cn, max over the spots on the chip (two locations)
[10] = GST-tagged Cn, mean over the spots on the chip (two locations)
[11] = GST-tagged Cn, max over the chip spots listed under Location on chip
[12] = GST-tagged Cn, mean over the chip spots listed under Location on chip

- Chip Fluorescence (max) [1]: -0.1304
- Chip Fluorescence (mean) [2]: -0.5132
Sequence: ESFGNELIPFNASKSY [Seqshuffled_9947]

- Chip Fluorescence (max) [3]: 1.643
- Chip Fluorescence (mean) [4]: 0.8461
Sequence: ESLWIPNATPTNFGVY [SeqRBM_4910]

Sequence: ESSTTPGVVVHICEDD [SeqRBM_7485]
- Chip Fluorescence (max) [5]: 8.839
- Chip Fluorescence (mean) [6]: 1.544

- Chip Fluorescence (max) [1]: 0.2862
- Chip Fluorescence (mean) [2]: -1.095
Sequence: FAKHWPKLSDVSPVAH [SeqRBM_8299]

- Chip Fluorescence (max) [7]: 2.606
- Chip Fluorescence (mean) [8]: -0.1576
Sequence: FETSHPTVQLKIPQLR [SeqLCORL_Pteropus_alecto]

- Chip Fluorescence (max) [5]: 3.699
- Chip Fluorescence (mean) [6]: 0.5277
Sequence: FFHHGLSCCKARQAEY [Seqrandom_9955]

- Chip Fluorescence (max) [5]: 5.256
- Chip Fluorescence (mean) [6]: 1.49
Sequence: FHYEDLSWHFQLFEGE [Seqrandom_9976]

- Chip Fluorescence (max) [5]: 4.229
- Chip Fluorescence (mean) [6]: 0.4051
Sequence: FLGRGPQLEDFDPSRD [Seqshuffled_9338]

- Chip Fluorescence (max) [9]: 1.192
- Chip Fluorescence (mean) [10]: 0.531
Sequence: FNSWRQVPLWSPEFHT [SeqRBM_9832]

- Chip Fluorescence (max) [11]: 0.3774
- Chip Fluorescence (mean) [12]: -0.7887
Sequence: FSFMCPDSNTNHDQVS [SeqRBM_6801]

- Chip Fluorescence (max) [1]: 0.03592
- Chip Fluorescence (mean) [2]: -0.8656
Sequence: FSGNQPAIVVHTCEDP [SeqRBM_2445]

- Chip Fluorescence (max) [3]: 1.524
- Chip Fluorescence (mean) [4]: -0.1169
Sequence: FSMLIGMHEPHPNTTI [Seqrandom_9971]

- Chip Fluorescence (max) [9]: 1.106
- Chip Fluorescence (mean) [10]: -0.01462
Sequence: FSNKASKARRMEPLSI [SeqRBM_824]

- Chip Fluorescence (max) [3]: 1.622
- Chip Fluorescence (mean) [4]: 0.7552
Sequence: GAPGTPSRWGTPLAPS [SeqRBM_851]

- Chip Fluorescence (max) [11]: 0.7143
- Chip Fluorescence (mean) [12]: -1.223
Sequence: GAPITPHKQGNEKAVS [SeqRBM_6919]

- Chip Fluorescence (max) [3]: 1.507
- Chip Fluorescence (mean) [4]: 0.3571
Sequence: GASMCPAMSWQDCGQR [SeqSFB3_Iconisemion_striatum]

- Chip Fluorescence (max) [5]: 7.244
- Chip Fluorescence (mean) [6]: 0.4206
Sequence: GAWGLNKSGLFLINEV [Seqshuffled_9399]

- Chip Fluorescence (max) [5]: 4.236
- Chip Fluorescence (mean) [6]: -0.3717
Sequence: GDPITVTFSFKQQSIR [Seqshuffled_9986]

- Chip Fluorescence (max) [3]: 1.494
- Chip Fluorescence (mean) [4]: 0.7951
Sequence: GDYMQGTLQAETGEHD [Seqshuffled_9624]

- Chip Fluorescence (max) [7]: 3.053
- Chip Fluorescence (mean) [8]: 1.402
Sequence: GELAIKNMKPWDVGGY [SeqRBM_3830]

- Chip Fluorescence (max) [3]: 1.711
- Chip Fluorescence (mean) [4]: 0.4381
Sequence: GGESQPGIVVHVCEED [SeqRBMlowT_2505]

- Chip Fluorescence (max) [7]: 2.739
- Chip Fluorescence (mean) [8]: 1.043
Sequence: GGLRSDSVTMIDQGAY [SeqRBM_2699]

- Chip Fluorescence (max) [3]: 1.6472
- Chip Fluorescence (mean) [4]: -0.88
Sequence: GGPGTPGRPGIHSAPS [SeqRBM_5424]

- Chip Fluorescence (max) [9]: 1.277
- Chip Fluorescence (mean) [10]: -0.2851
Sequence: GGPGTPGRQGGHLAPS [SeqRBMlowT_9820]

- Chip Fluorescence (max) [1]: 0.3619
- Chip Fluorescence (mean) [2]: -1.021
Sequence: GGPGTPGRQGQHLAPS [SeqRBMlowT_7794]

- Chip Fluorescence (max) [3]: 1.388
- Chip Fluorescence (mean) [4]: -0.6767
Sequence: GGPGTPGRQGQPLAPS [SeqRBMlowT_7795]

- Chip Fluorescence (max) [5]: 21.0979
- Chip Fluorescence (mean) [6]: 2.702
Sequence: GGPGTPTRQGQHLAPG [SeqRBMlowT_9846]

- Chip Fluorescence (max) [5]: 4.384
- Chip Fluorescence (mean) [6]: 0.9288
Sequence: GGPGTPTRQGQPLAPS [SeqRBMlowT_7789]

- Chip Fluorescence (max) [5]: 4.764
- Chip Fluorescence (mean) [6]: 1.127
Sequence: GHSHNPSITITFAEAE [SeqRBM_9189]

- Chip Fluorescence (max) [9]: 1.002
- Chip Fluorescence (mean) [10]: 0.1299
Sequence: GLCDSSKVNLVDAGPV [Seqshuffled_9731]

- Chip Fluorescence (max) [11]: 0.9025
- Chip Fluorescence (mean) [12]: -0.2688
Sequence: GLLNVYKKTRITYDNL [Seqrandom_1974]

- Chip Fluorescence (max) [9]: 1.034
- Chip Fluorescence (mean) [10]: -0.005812
Sequence: GPPATPSIVVHPCCCD [SeqRBM_2098]

- Chip Fluorescence (max) [5]: 6.762
- Chip Fluorescence (mean) [6]: 1.072
Sequence: GPQDIPEVVVSPPEDD [SeqSLC4A7_Austrofundulus_limnaeus]

- Chip Fluorescence (max) [1]: 0.04391
- Chip Fluorescence (mean) [2]: -1.286
Sequence: GQSISRNIRPNTFSPL [Seqshuffled_9432]

- Chip Fluorescence (max) [5]: 5.16
- Chip Fluorescence (mean) [6]: 0.1112
Sequence: GSDDCPNVIVHIPHED [SeqRBM_9050]

- Chip Fluorescence (max) [7]: 2.678
- Chip Fluorescence (mean) [8]: 0.9155
Sequence: GSETQPGIVVHVCEDD [SeqRBMlowT_1216]

- Chip Fluorescence (max) [7]: 2.642
- Chip Fluorescence (mean) [8]: 1.025
Sequence: GSMLVPAINIDYAPTN [SeqRBMlowT_5048]

- Chip Fluorescence (max) [7]: 3.396
- Chip Fluorescence (mean) [8]: 0.6955
Sequence: GSPPTPSRSGKPPKPL [SeqRBM_2495]

- Chip Fluorescence (max) [9]: 1.178
- Chip Fluorescence (mean) [10]: 0.2864
Sequence: GSSSSPPVDLKIPQVR [SeqRBMlowT_8820]

- Chip Fluorescence (max) [11]: 0.8657
- Chip Fluorescence (mean) [12]: -0.2753
Sequence: GTDTTPSVVVHVCEDD [SeqRBMlowT_1211]

- Chip Fluorescence (max) [11]: 0.4586
- Chip Fluorescence (mean) [12]: 0.04317
Sequence: GTESTPSVVVHVCDSD [SeqRCN1_Desmodus_rotundus]

- Chip Fluorescence (max) [5]: 3.823
- Chip Fluorescence (mean) [6]: 1.0203
Sequence: GTESTPSVVVHVCESE [SeqRCN1_Pongo_abelii]

- Chip Fluorescence (max) [5]: 4.964
- Chip Fluorescence (mean) [6]: 1.374
Sequence: GTETTPSIVVHVCEDD [SeqRBMlowT_128]

- Chip Fluorescence (max) [5]: 4.01
- Chip Fluorescence (mean) [6]: 1.52
Sequence: GTETTPSVVVHVCEDD [SeqRBMlowT_112]

- Chip Fluorescence (max) [5]: 3.464
- Chip Fluorescence (mean) [6]: 0.964
Sequence: GTLYDNVLGIESFSLS [SeqRBMlowT_4817]

- Chip Fluorescence (max) [1]: 0
- Chip Fluorescence (mean) [2]: -0.3136
Sequence: GTMSPPDISITPPYAP [SeqRBM_3223]

- Chip Fluorescence (max) [5]: 3.637
- Chip Fluorescence (mean) [6]: -0.2581
Sequence: GTSGGFPQTDRSHKKQ [SeqRBM_413]

- Chip Fluorescence (max) [9]: 1.31
- Chip Fluorescence (mean) [10]: -0.01046
Sequence: GVHSCPALSVDRPQNQ [Seqshuffled_9565]

- Chip Fluorescence (max) [1]: -0.4316
- Chip Fluorescence (mean) [2]: -1.3551
Sequence: GVPETPSRPVDPTAPS [SeqRBM_5086]

- Chip Fluorescence (max) [1]: -0.1422
- Chip Fluorescence (mean) [2]: -2.366
Sequence: GVQANPQFTIKAMMTN [SeqRBM_9281]

- Chip Fluorescence (max) [7]: 3.174
- Chip Fluorescence (mean) [8]: 2.023
Sequence: GYDIDPAISFDSDLML [Seqshuffled_9502]

- Chip Fluorescence (max) [1]: -0.228
- Chip Fluorescence (mean) [2]: -0.7974
Sequence: HISSSPDITATPTQHR [SeqRIPOR2_Calypte_anna]

- Chip Fluorescence (max) [3]: 1.7974
- Chip Fluorescence (mean) [4]: -0.2423
Sequence: HSKFIPKLSIQSPVLH [SeqRBMlowT_6746]

- Chip Fluorescence (max) [9]: 1.29
- Chip Fluorescence (mean) [10]: -0.2065
Sequence: HSKFIPKLSLQSPVHH [SeqRBMlowT_1695]

- Chip Fluorescence (max) [1]: -0.8035
- Chip Fluorescence (mean) [2]: -1.44
Sequence: HSKLIPKLSFQSPVHH [SeqRBMlowT_814]

- Chip Fluorescence (max) [1]: 0.1809
- Chip Fluorescence (mean) [2]: -0.5839
Sequence: HSKLIPKLSIQSPVHH [SeqRBMlowT_822]

- Chip Fluorescence (max) [11]: 0.5936
- Chip Fluorescence (mean) [12]: -1.087
Sequence: HSKLIPKLSISSPVHH [SeqRBMlowT_1731]

- Chip Fluorescence (max) [3]: 1.671
- Chip Fluorescence (mean) [4]: -0.5381
Sequence: HSKLIPKLSVQSPVHH [SeqRBMlowT_1714]

- Chip Fluorescence (max) [1]: 0.1516
- Chip Fluorescence (mean) [2]: -0.9286
Sequence: HSKLIPKVSIQSPVHH [SeqRBMlowT_2323]

- Chip Fluorescence (max) [1]: 0.06895
- Chip Fluorescence (mean) [2]: -0.7142
Sequence: HSKSIPKFSFQSPVHH [SeqRBMlowT_1680]

- Chip Fluorescence (max) [1]: -0.2725
- Chip Fluorescence (mean) [2]: -0.8171
Sequence: HSKSIPKISIQSPVHH [SeqRBMlowT_863]

- Chip Fluorescence (max) [7]: 3.1562
- Chip Fluorescence (mean) [8]: 1.038
Sequence: HSKSSPKLSISSPVHH [SeqRBMlowT_1628]

- Chip Fluorescence (max) [3]: 1.612
- Chip Fluorescence (mean) [4]: 0.1762
Sequence: HVEDTTEFALQRPSND [Seqshuffled_9422]

- Chip Fluorescence (max) [1]: 0.08257
- Chip Fluorescence (mean) [2]: -1.44
Sequence: HVSSSPDIAITPTQHR [SeqRBMlowT_750]

- Chip Fluorescence (max) [1]: 0.08725
- Chip Fluorescence (mean) [2]: -0.9315
Sequence: HVSSSPDIALTPEQHD [SeqRBM_7666]

- Chip Fluorescence (max) [9]: 1.204
- Chip Fluorescence (mean) [10]: 0.3347
Sequence: HVSSSPDITITPTQHR [SeqRBMlowT_702]
